Test results published in patent US20240148723A1, “MYCOBACTERIUM TUBERCULOSIS COMPOSITIONS AND METHODS” (priority 2021, published 2024).
≈ marks a conversion by molar mass, not a printed value.

System: M. tuberculosis
Assay type: cell-based, Mycobacterium tuberculosis
Conditions: pH 6.8

| SMILES | MIC in the media 7H9 | MIC in the media L-Ala | MIC in the media SBA | MIC in the media SLac |
| --- | --- | --- | --- | --- |
| Cc1c(Cl)ccc2c(C(=O)O)cc(-c3ccccc3)nc12 [compound 40306] | ≥ 29.77 µg/mL | 7.44 µg/mL (≈ 25 µM) | 7.44 µg/mL (≈ 25 µM) | 3.72 µg/mL (≈ 12.5 µM) |
| CCOC(=O)c1ccc(N)cc1 [compound 41531] | ≥ 800 µg/mL | 0.26 µg/mL (≈ 1.57 µM) | 0.26 µg/mL (≈ 1.57 µM) | 0.26 µg/mL (≈ 1.57 µM) |
| Nc1cc(Nc2ccc(Br)cc2)nc(N)n1 [compound 42135] | ≥ 28.01 µg/mL | 7.00 µg/mL (≈ 25 µM) | 14.01 µg/mL (≈ 50 µM) | 3.50 µg/mL (≈ 12.5 µM) |
| O=C1C[C@@H](c2ccccc2)Oc2cc(O)cc(O)c21 [compound 43318] | ≥ 101.70 µg/mL | 6.36 µg/mL (≈ 24.8 µM) | 6.36 µg/mL (≈ 24.8 µM) | 0.41 µg/mL (≈ 1.6 µM) |
| O=C1C(O)=C(c2ccccc2)C(=O)C(O)=C1c1ccccc1 [compound 44175] | ≥ 29.23 µg/mL | 7.31 µg/mL (≈ 25 µM) | 3.65 µg/mL (≈ 12.5 µM) | 3.65 µg/mL (≈ 12.5 µM) |
| CN(CC(=O)O)Cc1c(O)c(Cl)cc(Cl)c1Cl [compound 45114] | ≥ 119.40 µg/mL | 29.85 µg/mL (≈ 100 µM) | 14.93 µg/mL (≈ 50 µM) | 3.73 µg/mL (≈ 12.5 µM) |
| C=C1C(=O)OC2CC1C(OC(C)=O)C/C(C)=C/CC/C(C)=C\CCC2(C)O (stereo not shown) [compound 46728] | ≥ 75.30 µg/mL | 37.65 µg/mL (≈ 100 µM) | 9.41 µg/mL (≈ 25 µM) | 4.71 µg/mL (≈ 12.5 µM) |
| c1ccc(Sc2ncnc3ccccc23)cc1 [compound 51331] | ≥ 23.83 µg/mL | 11.92 µg/mL (≈ 50 µM) | 11.92 µg/mL (≈ 50 µM) | 2.98 µg/mL (≈ 12.5 µM) |
| Oc1ccc(Cl)cc1Sc1cc(Cl)ccc1O [compound 55636] | ≥ 114.88 µg/mL | 1.80 µg/mL (≈ 6.27 µM) | 0.92 µg/mL (≈ 3.2 µM) | 0.92 µg/mL (≈ 3.2 µM) |
| COC12C(COC(N)=O)C3=C(C(=O)C(C)=C(N)C3=O)N1CC1C2N1C (stereo not shown) [compound 56410] | ≥ 0.28 µg/mL | 0.28 µg/mL (≈ 0.804 µM) | 0.28 µg/mL (≈ 0.804 µM) | 0.56 µg/mL (≈ 1.61 µM) |
| COc1ccc(C(=O)c2ccccc2O)c(O)c1 [compound 56769] | ≥ 97.70 µg/mL | 24.42 µg/mL (≈ 100 µM) | 24.42 µg/mL (≈ 100 µM) | 0.76 µg/mL (≈ 3.11 µM) |
| O=[N+]([O-])c1cc([N+](=O)[O-])c2cccnc2c1O [compound 57103] | ≥ 23.52 µg/mL | 0.75 µg/mL (≈ 3.19 µM) | 0.75 µg/mL (≈ 3.19 µM) | 0.75 µg/mL (≈ 3.19 µM) |
| COc1ccc(C2CC(=O)c3c(O)cc(O)cc3O2)cc1O (stereo not shown) [compound 57654] | ≥ 120.91 µg/mL | 7.56 µg/mL (≈ 25 µM) | 7.56 µg/mL (≈ 25 µM) | 1.89 µg/mL (≈ 6.25 µM) |
| O=c1[nH]c(=S)[nH]cc1Oc1ccc(Cl)cc1Cl [compound 73753] | ≥ 115.66 µg/mL | 14.46 µg/mL (≈ 50 µM) | 14.46 µg/mL (≈ 50 µM) | 1.81 µg/mL (≈ 6.26 µM) |
| CC[C@@H](O)C[C@H]1CCC[C@@]2(C[C@@H]3OC(=O)/C=C/[C@@](C)(O)[C@@H](O)[C@H](C)[C@@H](O)[C@H](OC4CCC(N(C)C)C(C)O4)[C@@H](O)[C@](C)(O)CCCCC/C=C/[C@@H]4CC(C)(C)O[C@@]4(O)C[C@H](O2)[C@H]3C)O1 (stereo partly shown) [compound 76627] | ≥ 22.81 µg/mL | 5.7 µg/mL (≈ 6.25 µM) | 11.4 µg/mL (≈ 12.5 µM) | 5.7 µg/mL (≈ 6.25 µM) |
| CCOC(CNCc1cc(C)c2[nH]c3ccccc3c2c1C)OCC [compound 79486] | ≥ 17.03 µg/mL | 8.51 µg/mL (≈ 25 µM) | 8.51 µg/mL (≈ 25 µM) | 2.13 µg/mL (≈ 6.26 µM) |
| Cc1ccc(NC(c2ccccc2)c2ccc3cccnc3c2O)cc1 (stereo not shown) [compound 84093] | ≥ 136.16 µg/mL | 17.02 µg/mL (≈ 50 µM) | 2.13 µg/mL (≈ 6.26 µM) | 2.13 µg/mL (≈ 6.26 µM) |

| SMILES | MIC in the media 7H9 | MIC in the media L-Ala | MIC in the media SBA | MIC in the media SLac |
| --- | --- | --- | --- | --- |
| CCCCc1oc2ccccc2c1C(=O)c1cc(I)c(OCCN(CC)CC)c(I)c1.Cl [compound 85442] | ≥ 8.52 µg/mL | 4.26 µg/mL | 2.18 µg/mL | 1.09 µg/mL |
| OC(COc1ccc(Cl)cc1)CN1CCN(c2cccc(Cl)c2)CC1 (stereo not shown) [compound 91340] | ≥ 38.13 µg/mL | 4.77 µg/mL (≈ 12.5 µM) | 9.53 µg/mL (≈ 25 µM) | 4.77 µg/mL (≈ 12.5 µM) |
| Sc1nc2cc(-c3ccccc3)ccc2o1 [compound 93817] | ≥ 22.73 µg/mL | 1.42 µg/mL (≈ 6.25 µM) | 0.73 µg/mL (≈ 3.21 µM) | 0.73 µg/mL (≈ 3.21 µM) |
| Nc1ccc(N=Nc2ccc(O)cc2)c(N)n1 [compound 108235] | ≥ 22.92 µg/mL | 11.46 µg/mL (≈ 50 µM) | 11.46 µg/mL (≈ 50 µM) | 5.73 µg/mL (≈ 25 µM) |
| CCC(C)c1occ2c(O)c(C(=O)O)c(=O)cc-2c1C (stereo not shown) [compound 114344] | ≥ 110.51 µg/mL | 27.63 µg/mL (≈ 100 µM) | 6.91 µg/mL (≈ 25 µM) | 1.73 µg/mL (≈ 6.26 µM) |
| C1C2CC3C1C3/C2=N\N=C1/C2CC3C(C2)C13 [compound 122987] | ≥ 88.52 µg/mL | 1.38 µg/mL (≈ 6.5 µM) | 11.06 µg/mL (≈ 52.1 µM) | 5.53 µg/mL (≈ 26 µM) |
| COc1ccc(-c2coc3cc(O)cc(O)c3c2=O)cc1 [compound 123538] | ≥ 113.70 µg/mL | 7.11 µg/mL (≈ 25 µM) | 7.11 µg/mL (≈ 25 µM) | 0.45 µg/mL (≈ 1.58 µM) |
| NN=C1C(Cl)=C(Cl)C(Cl)=C1Cl [compound 126405] | ≥ 23.19 µg/mL | 5.80 µg/mL (≈ 25 µM) | 5.80 µg/mL (≈ 25 µM) | 5.80 µg/mL (≈ 25 µM) |
| Cc1ccc2ccc(C#N)cc2c1O [compound 128068] | ≥ 18.32 µg/mL | 9.16 µg/mL (≈ 50 µM) | 9.16 µg/mL (≈ 50 µM) | 2.29 µg/mL (≈ 12.5 µM) |
| CCCCOC(=O)c1ccc(N)cc1 [compound 128464] | ≥ 800 µg/mL | 0.06 µg/mL (≈ 0.31 µM) | 0.06 µg/mL (≈ 0.31 µM) | 0.06 µg/mL (≈ 0.31 µM) |
| COC1C=COC2(C)Oc3c(C)c(O)c4c(O)c(cc(O)c4c3C2=O)NC(=O)C(C)=CC=CC(C)C(O)C(C)C(O)C(C)C(OC(C)=O)C1C (stereo not shown) [compound 133100] | ≥ 0.56 µg/mL | 0.56 µg/mL (≈ 0.803 µM) | 0.56 µg/mL (≈ 0.803 µM) | 0.56 µg/mL (≈ 0.803 µM) |
| CSc1nc(=O)[nH]nc1Sc1ccccc1 [compound 134058] | ≥ 25.13 µg/mL | 6.28 µg/mL (≈ 25 µM) | 3.14 µg/mL (≈ 12.5 µM) | 3.14 µg/mL (≈ 12.5 µM) |
| Cc1ccc(C)c(N2CCN(c3ccncc3N)CC2)c1 [compound 147866] | ≥ 14.12 µg/mL | 14.12 µg/mL (≈ 50 µM) | 7.06 µg/mL (≈ 25 µM) | 1.77 µg/mL (≈ 6.27 µM) |
| CC1(C)CCSC(C=Cc2ccccc2)=N1 [compound 150954] | ≥ 11.57 µg/mL | 5.78 µg/mL (≈ 25 µM) | 2.89 µg/mL (≈ 12.5 µM) | 2.89 µg/mL (≈ 12.5 µM) |
| O=[N+]([O-])/C=C/c1cc2ccccc2[nH]1 [compound 150982] | ≥ 18.82 µg/mL | 9.41 µg/mL (≈ 50 µM) | 4.70 µg/mL (≈ 25 µM) | 2.35 µg/mL (≈ 12.5 µM) |
| CCOc1ccc(N=Nc2ccc(N)cc2N)cc1 [compound 190374] | ≥ 6.41 µg/mL | 3.20 µg/mL (≈ 12.5 µM) | 6.41 µg/mL (≈ 25 µM) | 3.20 µg/mL (≈ 12.5 µM) |
| Cc1ccc([S+]([O-])c2ccc([N+](=O)[O-])c3nonc23)cc1 (stereo not shown) [compound 228150] | ≥ 30.33 µg/mL | 7.58 µg/mL (≈ 25 µM) | 3.79 µg/mL (≈ 12.5 µM) | 3.79 µg/mL (≈ 12.5 µM) |
